Experimental data taken from US20150011559A1, “ANTIMICROBIAL AGENTS” (RUTGERS, THE STATE UNIVERSITY OF NEW JERSEY, priority 2012, published 2015).
Values after ≈ are worked out from the molar mass of the structure shown. Read-outs that look alike come from different tables or passages of the source.

Key:
[1] = tested on: methicillin-susceptible Staphylococcus aureus (MSSA); assay: Antibacterial assay (Test C), broth microdilution MIC against MSSA; format: cell-based; settings: for MIC: Staphylococcus aureus, MSSA, read-out: MSSA MIC data
Experimental: (§1) Test C. Antibacterial Assay.
(§2) Antibacterial activity can be determined as per Clinical and Laboratory Standards Institute (CLSI) guidelines using a broth microdilution assay in which log-phase bacteria are grown at 37° C. in appropriate medium containing two-fold serial dilutions of a compound to yield final concentrations ranging from 256 to 0.06 μg/mL. For determination of minimal inhibitory concentration (MIC) values, bacterial growth is monitored after 24 to 48 hours by measuring optical density at 600 nm.
(§3) Using a procedure similar to Test C, representative compounds of the invention were tested against methicillin-susceptible Staphylococcus aureus (MSSA) and methicillin-resistant Staphylococcus aureus (MRSA).

[2] = tested on: methicillin-resistant Staphylococcus aureus (MRSA); assay: Antibacterial assay (Test C), broth microdilution MIC against MRSA; format: cell-based; settings: for MIC: Staphylococcus aureus, MRSA, read-out: MRSA MIC data
Experimental: as §1, §2, §3

[3] = minimal inhibitory concentration, broth microdilution, growth completely inhibited
[4] = minimal inhibitory concentration, broth microdilution, growth completely inhibited, listed as 18
[5] = minimal inhibitory concentration, broth microdilution, growth completely inhibited, listed as 19
[6] = minimal inhibitory concentration, broth microdilution, growth completely inhibited, listed as 43
[7] = minimal inhibitory concentration, broth microdilution, growth completely inhibited, listed as 46
[8] = minimal inhibitory concentration, broth microdilution, growth completely inhibited, listed as 51

| MIC [1, 3] | MIC [2, 3] | SMILES | also measured |
| --- | --- | --- | --- |
| – | 1 µg/mL (≈ 3.55 µM) | CC(C)(C)c1ccc(-c2cccc(CNC(=N)N)c2)cc1 [Code 4] | MSSA MIC data ([1]; minimal inhibitory concentration, broth microdilution, growth completely inhibited, listed as 3): 1.0 µg/mL |
| 8 µg/mL (≈ 28.3 µM) | 16 µg/mL (≈ 56.7 µM) | CC(C)(C)c1ccc(-c2ccnc(CN=C(N)N)c2)cc1 [Code 5] | – |
| 4 µg/mL (≈ 11.8 µM) | 8 µg/mL (≈ 23.6 µM) | CC(C)(C)c1ccc(-c2ccc3sc(CNC(=N)N)nc3c2)cc1 [Code 6] | – |
| 4 µg/mL (≈ 13.9 µM) | 32 µg/mL (≈ 111 µM) | CC(C)(C)c1ccc(-c2csc(CNC(=N)N)n2)cc1 [Code 10] | – |
| 8 µg/mL (≈ 27.7 µM) | 32 µg/mL (≈ 111 µM) | CC(C)(C)c1ccc(-c2ncc(CNC(=N)N)s2)cc1 [Code 11] | – |
| 2 µg/mL (≈ 6.79 µM) | 8 µg/mL (≈ 27.2 µM) | CC(C)(C)c1ccc(-c2cccc(/C=N/NC(=N)N)c2)cc1 [Code 12] | – |
| 1 µg/mL (≈ 3.38 µM) | 2 µg/mL (≈ 6.77 µM) | CC(NC(=N)N)c1cccc(-c2ccc(C(C)(C)C)cc2)c1 (centres unmarked) [Code 13] | – |
| 2 µg/mL (≈ 5.86 µM) | 8 µg/mL (≈ 23.4 µM) | COc1cc(-c2ccc(C(C)(C)C)cc2)cc(CNC(=N)N)c1OC [Code 14] | – |
| 2 µg/mL (≈ 4.1 µM) | 4 µg/mL (≈ 8.2 µM) | COCCOCCOCCOCCOc1cc(CNC(=N)N)cc(-c2ccc(C(C)(C)C)cc2)c1 [Code 17] | – |
| 4 µg/mL (≈ 14.2 µM) | – | CC(C)(C)c1ccc(-c2ccc(CNC(=N)N)cc2)cc1 [Code 18] | MRSA MIC data ([2]; minimal inhibitory concentration, broth microdilution, growth completely inhibited, listed as 16): 16 µg/mL |
| 2 µg/mL (≈ 7.11 µM) | 8 µg/mL (≈ 28.4 µM) | CC(C)(C)c1cccc(-c2cccc(CNC(=N)N)c2)c1 [Code 24] | – |
| 4 µg/mL (≈ 13.5 µM) | 8 µg/mL (≈ 27.1 µM) | CC(C)(C)c1ccc(-c2cccc(C(=O)NC(=N)N)c2)cc1 [Code 29] | – |
| 2 µg/mL (≈ 6.75 µM) | 4 µg/mL (≈ 13.5 µM) | CC(C)(C)c1ccc(-c2cccc(CNNC(=N)N)c2)cc1 [Code 31] | – |
| 1 µg/mL (≈ 2.8 µM) | 2 µg/mL (≈ 5.59 µM) | CC(C)(C)c1ccc(-c2ccc(-c3cccc(CNC(=N)N)c3)cc2)cc1 [Code 43] | – |
| 4 µg/mL (≈ 9.67 µM) | 32 µg/mL (≈ 77.4 µM) | CC(C)(C)c1ccc(-c2cc(CNC(=N)N)cc(-c3ccc(C(C)(C)C)cc3)c2)cc1 [Code 44] | – |
| 16 µg/mL (≈ 66.8 µM) | 16 µg/mL (≈ 66.8 µM) | CC(C)(C)c1ccc(-c2cccc(CN)c2)cc1 [Code 57] | – |
| 32 µg/mL (≈ 68.5 µM) | – | CC(C)(C)c1ccc(-c2cc(CNC(=N)N)cc(CC(Br)Br)c2)cc1 [Code 58] | – |
| 8 µg/mL (≈ 23.9 µM) | 8 µg/mL (≈ 23.9 µM) | CC(C)(C)c1ccc(-c2cc(Cn3ccnc3)cc([N+](=O)[O-])c2)cc1 [Code 58] | – |
| 16 µg/mL (≈ 45.4 µM) | 16 µg/mL (≈ 45.4 µM) | CC(C)(C)c1ccc(-c2cc(CNC(=N)N)cc(CNC(=N)N)c2)cc1 [Code 59] | – |
| > 64 µg/mL | – | CC(C)(C)c1ccc(-c2cc(N)cc(Cn3ccnc3)c2)cc1 [Code 59] | – |
| 2 µg/mL (≈ 4.2 µM) | 8 µg/mL (≈ 16.8 µM) | CC(C)(C)c1ccc(-c2cc(CC(Br)Br)cc(Cn3ccnc3)c2)cc1 [Code 61] | MSSA MIC data [1, 3]: 4.0 µg/mL |
| 16 µg/mL (≈ 46 µM) | > 64 µg/mL | CC(=O)Nc1cc(Cn2ccnc2)cc(-c2ccc(C(C)(C)C)cc2)c1 [Code 63] | – |
| 2 µg/mL (≈ 5.49 µM) | 8 µg/mL (≈ 21.9 µM) | CC(C)(C)c1ccc(-c2cc(CNC(=N)N)cc(-c3cscn3)c2)cc1 [Code 63] | – |
| – | 32 µg/mL (≈ 104 µM) | NC(N)=NCc1cccc(-c2ccc(-c3cscn3)cc2)c1 [Code 65] | MSSA MIC data [1, 3]: 8.0 µg/mL; MSSA MIC data ([1]; minimal inhibitory concentration, broth microdilution, growth completely inhibited, listed as 55): 32 µg/mL |

Continued, compound first:

| SMILES | MIC [1, 3] | MIC [2, 3] | also measured |
| --- | --- | --- | --- |
| C[N+](C)(C)c1ccc(-c2ccc(-c3ccccc3)cc2)cc1.[I-] [Code 1] | 8 µg/mL | 64 µg/mL | – |
| CC(C)(C)c1ccc(-c2cccc(CNC(=N)N)c2)cc1 [Code 3] | – | – | MSSA MIC data ([1]; minimal inhibitory concentration, broth microdilution, growth completely inhibited, listed as 2): >64.0 µg/mL |
| CC(C)(C)OC(=O)NC(=N)NCc1nc(-c2ccc(C(C)(C)C)cc2)cs1 [Code 9] | 8 µg/mL (≈ 20.6 µM) | – | – |
| CC(C)(C)c1ccc(-c2cccc(OCCn3ccnc3)c2)cc1 [Code 15] | 4 µg/mL (≈ 12.5 µM) | 4 µg/mL (≈ 12.5 µM) | – |
| COc1cc(-c2ccc(C(C)(C)C)cc2)cc(Cn2ccnc2)c1OC [Code 16] | 2 µg/mL (≈ 5.71 µM) | 2 µg/mL (≈ 5.71 µM) | – |
| CC(C)(C)c1ccc(-c2ccc(CCN)cc2)cc1 [Code 19] | 4 µg/mL (≈ 15.8 µM) | – | MRSA MIC data ([2]; minimal inhibitory concentration, broth microdilution, growth completely inhibited, listed as 17): 4.0 µg/mL |
| CC(C)(C)c1ccc(-c2ccc(CNC(=N)N)cc2)cc1 [Code 20] | – | – | MSSA MIC data [1, 4]: 2.0 µg/mL; MRSA MIC data [2, 4]: 4.0 µg/mL |
| CC(C)(C)c1ccc(-c2ccc(CCN)cc2)cc1 [Code 21] | – | – | MSSA MIC data [1, 5]: 8.0 µg/mL; MRSA MIC data [2, 5]: 16 µg/mL |
| CN(C)Cc1ccc(-c2ccc(C(C)(C)C)cc2)cc1 [Code 22] | 16 µg/mL (≈ 59.8 µM) | 32 µg/mL (≈ 120 µM) | – |
| CN(C)Cc1ccc(-c2ccc(C(C)(C)C)cc2)cc1CN=C(N)N [Code 23] | 4 µg/mL (≈ 11.8 µM) | 8 µg/mL (≈ 23.6 µM) | – |
| CC(C)(C)c1csc(-c2ccc(CN=C(N)N)cc2)n1 [Code 25] | 4 µg/mL (≈ 13.9 µM) | 8 µg/mL (≈ 27.7 µM) | – |
| CC(C)(C)c1csc(-c2cccc(CN=C(N)N)c2)n1 [Code 26] | 4 µg/mL (≈ 13.9 µM) | 16 µg/mL (≈ 55.5 µM) | – |
| CC(C)(C)c1csc(-c2ccc(CN=C(N)N)cc2)n1 [Code 28] | – | – | MRSA MIC data ([2]; minimal inhibitory concentration, broth microdilution, growth completely inhibited, listed as 25): 8 µg/mL |
| N=C(N)N/N=C/c1cccc(-c2ccc(Br)cc2)c1 [Code 30] | – | – | MSSA MIC data ([1]; minimal inhibitory concentration, broth microdilution, growth completely inhibited, listed as 27): 32 µg/mL |
| N=C(N)N/N=C/c1cccc(-c2ccc(Br)cc2)c1 [Code 35] | – | 4 µg/mL (≈ 12.6 µM) | MSSA MIC data ([1]; minimal inhibitory concentration, broth microdilution, growth completely inhibited, listed as 30): 4.0 µg/mL |
| C[N+](C)(C)c1cccc(-c2cccc(-c3cccc(-c4ccccc4)c3)c2)c1 [Code 36] | 1 µg/mL | 4 µg/mL | – |
| CC(C)(C)c1ccc(-c2ccccc2CCN)cc1 [Code 37] | 32 µg/mL (≈ 126 µM) | – | – |
| CC(C)(C)c1cccc(-c2ccccc2CCN)c1 [Code 38] | 32 µg/mL (≈ 126 µM) | – | – |

| SMILES | MIC [1, 3] | MIC [2, 3] | also measured |
| --- | --- | --- | --- |
| CC(C)(C)c1ccc(-c2cccc(CCN)c2)cc1 [Code 40] | 16 µg/mL (≈ 63.1 µM) | 8 µg/mL (≈ 31.6 µM) | – |
| NC(N)=NCc1cccc(-c2ccc(Br)cc2)c1 [Code 41] | – | – | MIC [1]: 4 µg/mL (≈ 13.1 µM); MIC [2]: 8 µg/mL (≈ 26.3 µM) |
| COc1cc(CN2CCN(C)CC2)cc(-c2ccc(C(C)(C)C)cc2)c1OC [Code 42] | 2 µg/mL (≈ 5.23 µM) | 4 µg/mL (≈ 10.5 µM) | – |
| Cc1cc(C)cc(-c2cccc(CCN)c2)c1 [Code 45] | 64 µg/mL (≈ 284 µM) | – | – |
| CCC(C)NCc1cccc(-c2ccc(C(C)(C)C)cc2)c1 (centres unmarked) [Code 46] | – | 16 µg/mL (≈ 54.2 µM) | MSSA MIC data ([1]; minimal inhibitory concentration, broth microdilution, growth completely inhibited, listed as 40): 4.0 µg/mL |
| CC(C)(C)c1ccc(-c2cccc(Cn3ccnc3)c2)cc1 [Code 47] | 8 µg/mL (≈ 27.5 µM) | 16 µg/mL (≈ 55.1 µM) | – |
| CC(C)(C)c1ccc(-c2cc(Cn3ccnc3)cc(NS(C)(=O)=O)c2)cc1 [Code 51] | – | – | MSSA MIC data [1, 6]: 1.0 µg/mL; MRSA MIC data [2, 6]: 2.0 µg/mL |
| COC(=O)c1ccc(-c2ccc(C(C)(C)C)cc2)cc1Cn1ccnc1 [Code 52, methyl 3-((1H-imidazol-1-yl)methyl)-4′-(tert-butyl)-[1,1′-biphenyl]-4-carboxylate] | 1 µg/mL (≈ 2.87 µM) | 2 µg/mL (≈ 5.74 µM) | – |
| COc1cc(OC(F)(F)F)ccc1-c1cc(CN=C(N)N)cc(-c2ccc(C(C)(C)C)cc2)c1 [Code 53] | 1 µg/mL (≈ 2.12 µM) | 2 µg/mL (≈ 4.24 µM) | – |
| CCC(C)NCc1cccc(-c2ccc(C(C)(C)C)cc2)c1 (centres unmarked) [Code 54] | – | – | MSSA MIC data [1, 7]: 16 µg/mL; MRSA MIC data [2, 7]: 32 µg/mL |
| CC(C)(C)c1ccc(-c2ccc(CO)c(Cn3ccnc3)c2)cc1 [Code 56] | 2 µg/mL (≈ 6.24 µM) | 8 µg/mL (≈ 25 µM) | – |
| CCC(C)N(Cc1cccc(-c2ccc(C(C)(C)C)cc2)c1)C(=N)N (centres unmarked) [Code 57] | > 64 µg/mL | – | – |
| CC(C)(C)c1ccc(-c2cc(Cn3ccnc3)cc(Cn3ccnc3)c2)cc1 [Code 60] | 4 µg/mL (≈ 10.8 µM) | 8 µg/mL (≈ 21.6 µM) | – |
| CC(C)(C)c1ccc(-c2cc(Cn3ccnc3)cc(NS(C)(=O)=O)c2)cc1 [Code 60] | – | – | MSSA MIC data [1, 8]: 16.0 µg/mL; MRSA MIC data [2, 8]: >64 µg/mL |
| O=C(Nc1nccs1)c1ccc(-c2cccc(Cn3ccnc3)c2)cc1 [Code 62] | 4 µg/mL (≈ 11.1 µM) | 32 µg/mL (≈ 88.8 µM) | – |
| NC(N)=NCc1cccc(-c2ccc(-c3cncs3)cc2)c1 [Code 64] | – | 32 µg/mL (≈ 104 µM) | MSSA MIC data [1, 3]: 4.0 µg/mL; MSSA MIC data ([1]; minimal inhibitory concentration, broth microdilution, growth completely inhibited, listed as 54): 16 µg/mL |
| CC(C)(C)c1ccc(-c2cccc(Cn3cncn3)c2)cc1 [Code 66] | 16 µg/mL (≈ 54.9 µM) | 16 µg/mL (≈ 54.9 µM) | MRSA MIC data [2, 3]: 32 µg/mL |
| CC(C)(C)c1ccc(-c2ccc(C(=O)Nc3nccs3)c(Cn3ccnc3)c2)cc1 [Code 67] | 32 µg/mL (≈ 76.8 µM) | – | – |
